Read-outs that look alike come from different tables or passages of the source. Bounds are passed on as bounds.

This is an account of results in US5567688A, “L-nucleosides for the treatment of hepatitis B-virus” (priority 1995, dated 1996).

Series [1] has as its system EBV. The experiment in a line: Inhibition of EBV production in H1 cells (bioassay, EBV DP activity in superinfected Raji cells). It is filed as cell-based. The note with it: for IC90: human gammaherpesvirus 4, Raji, 120 h. Here is the method:
(§1) H1 cells were maintained in […] growth for two days prior to the initiation of treatment. The cells were centrifuged at 600 g for 10 min. at room temperature to separate them from the medium containing pre-existing virus particles. The H1 cells were seeded in 24 well plates at a density of 1×10^5 cells per well in 2 ml of fresh medium with or without drug and incubated at 37° C. for 5 days. The medium containing virion was saved and used for evaluating the inhibitory effect of drugs on virus production and infectivity by use of a bioassay. The virion were pelleted from the cell free medium by centrifugation at 45,000 rpm for 90 min. in a SW-50 Ti rotor (Beckman). The virion were resuspended in 1 ml growth medium and then used to infect 1×10^6 Raji cells for 48 hours. Since the level of EBV DP activity in Raji cells post superinfection is proportional to the number of virions added (unpublishedresult), the EBV specific DP activity induced was able to be measured. The inhibitory drug effect Was calculated by comparing the EBV DP activity to multiple dilution controls.
Inhibitory effect of compounds on EBV: The CD50 was performed by
exposing H1 cells to different concentrations of the compounds in normal
growth medium at 37° C. for 72 hours; the cells were then counted
and compared with controls. H1 cells were treated for 5 days and the
ID90 was determined by bioassay.

Series [2] concerns HBV. Put plainly: Inhibition of HBV DNA in 2.2.15 cells (Southern analysis). It is filed as cell-based, HBV (human hepatoma 2.2.15 cells). The settings on record: for Therapeutic Index (DC50/ID50): HBV, CD50 / anti-HBV ID50; for IC50: Hepatitis B virus, 144 h, 2.2.15 cells, 6-day treatment, 50% inhibition of the DNA, read-out: Anti-HBV Activity ID50. Here is the method: Human hepatoma cells with HBV (2.2.15 cells) were used in the assay. These cells were grown to confluence in minimal essential medium with 10% fetal bovine serum. The media was changed at 3-day intervals. At confluence the treatment with the drugs was initiated and then continued for three days. Another addition of the same concentration of the drug was given at this point after removal of the media from the cultures and cultures maintained for an additional period of 3 days. The medium after the 6-day treatment was harvested and the viral particles precipitated by the polyethylene glycol method. The particles were subsequently digested and then processed for Southern analysis. The blots were hybridizied to an HBV-specific probe and vital DNA amounts assessed in comparison to DNA levels from cultures not treated with the drugs. The genomic DNA was digested with Hind III and subjected to Southern analysis. Levels of the episomal DNA were determined in relation to the integrated HBV DNA. The drug concentrations that cause 50% inhibition of the DNA (ID50) as compared to the controls were calculated.

Series [3] in a line: Cytotoxicity in MT2 cells (CD50). It counts as cell-based. The note with it: human.
Series [4] is described as follows: Cytotoxicity in CEM cells (CD50). It counts as cell-based. The note with it: human.
A short description of series [5]: Cytotoxicity (CD50) of Table I, cell line not given. It counts as cell-based.
Series [6] can be described thus: Cytotoxicity in H1 cells (cell count). It counts as cell-based. The note with it: 37° C., read-out: CD50.
Series [7] relates to mitochondrial DNA. Put plainly: Mitochondrial DNA content in H1 cells (slot blot assay). It counts as cell-based, human. The note with it: 1 mM, 6 days. As for the experimental part: as §1
Slot Blot Assay--The amount of mitochondrial DNA was measured by the slot blot method (2). […] The amount of mitochondrial DNA in the treated and non-treated H1 cells was quantified by densitometer (LKB Ultroscan XL).

The mark [8] stands for this setting: EBV, H1 cells treated for 5 days, bioassay, read-out: ID90 (the source's name).

For `Nc1nc2c(ncn2COCCO)c(=O)[nH]1` [ACV], the IC90 in series [1] (setting [8]) is 50 ± 8 µM.
For `CCc1cn([C@@H]2O[C@H](CO)[C@@H](O)[C@@H]2F)c(=O)[nH]c1=O` [D-FEAU], in series [2], the “Therapeutic Index (DC50/ID50)” value was more than 80. Further, in series [2], the IC50 was determined as 5 µM. For the same compound, the CC50 is 100 µM in series [3], 90 µM in series [4] and more than 400 µM in series [5]. Besides, the “Therapeutic Index (CD50/ID90)” value in series [1] (EBV, H1 cells) is given as more than 400. Also, in series [1] (setting [8]), the IC90 was determined as 1 µM. For the same compound, the CC50 at 72 h in series [6] was more than 400 µM.
In the case of `Cc1cn([C@@H]2O[C@H](CO)[C@@H](O)[C@@H]2F)c(=O)[nH]c1=O` [D-FMAU], the “Therapeutic Index (DC50/ID50)” value in series [2] was less than 5. In addition, the CC50 was 8 to 9 µM in series [3], 10 µM in series [4] and less than 10 µM in series [5]. The “Therapeutic Index (CD50/ID90)” value in series [1] (EBV, H1 cells) is given as less than 100. In series [1] (setting [8]), the IC90 is 0.1 µM. Further, the CC50 at 72 h in series [6] is less than 10 µM.
As for `Nc1nc2c(ncn2COC(CO)CO)c(=O)[nH]1` [DHPG], the IC90 in series [1] (setting [8]) was 5 ± 1 µM.
Consider `CCc1cn([C@H]2O[C@@H](CO)[C@H](O)[C@H]2F)c(=O)[nH]c1=O` [L-FEAU, N1-(2'-Deoxy-2'-fluoro-β-L-arabinofuranosyl)-5-ethyluracil], for which the “Therapeutic Index (DC50/ID50)” value in series [2] is more than 80. The IC50 in series [2] was more than 5 µM. Further, the CC50 is 100 µM in series [3], more than 100 µM in series [4] and more than 400 µM in series [5]. The “Therapeutic Index (CD50/ID90)” value in series [1] (EBV, H1 cells) was 20. Further, the IC90 in series [1] (read-out: ID90) came out at 20 µM. The CC50 at 72 h in series [6] is more than 400 µM.
`Nc1nc(=O)n([C@H]2O[C@@H](CO)[C@H](O)[C@H]2F)cc1I` [L-FIAC, N1-(2'-Deoxy-2'-fluoro-β-L-arabinofuranosyl)-5-iodocytosine]: in series [1] (EBV, H1 cells, up to 100 μM), the “Inhibitory effect on EBV (in words)” value was “inactivity up to 100 μM”.
As for `Cc1cn([C@H]2O[C@@H](CO)[C@H](O)[C@H]2F)c(=O)[nH]c1=O` [L-FMAU, N1-(2'-Deoxy-2'-fluoro-β-L-arabinofuranosyl)-thymine], in series [2], the “Therapeutic Index (DC50/ID50)” value amounted to 9130. For the same compound, the values for the CC50 in series [3], in series [4] and in series [5] were 100 µM, more than 100 µM and 913 ± 70 µM, respectively. Moreover, the “Therapeutic Index (CD50/ID90)” value in series [1] (EBV, H1 cells) was found to be 182. Besides, in series [1] (setting [8]), the IC90 was found to be 5 ± 0.8 µM. For the same compound, in series [6], the CC50 at 72 h amounted to 913 ± 70 µM. Also, the “Inhibition of mitochondrial DNA content in H1 cells” value in series [7] is reported as “No inhibition”.
In the case of `Nc1nc2c(ncn2CCC(CO)CO)c(=O)[nH]1` [PCV], in series [1] (setting [8]), the IC90 was determined as 20 ± 2 µM.
`O=C(O)P(=O)(O)O` [PFA]: the IC90 in series [1] (setting [8]) is 75 ± 5 µM.
